Patent US20090203585A1, “CAPREOMYCIN DERIVATIVES AND THEIR USE AS ANTIBACTERIALS” (priority 2006, published 2009)

Experiments:
mycobacteria = conditions: cited from earlier work
[1] = test system: other genera of bacteria (Gram-positive, Gram-negative); conditions: cited from earlier work
[2] = test system: MRSA (Methicillin resistant Staphylococcus aureus, ATCC33591); test: MIC determination in MRSA; type: cell-based
Experimental: Cation Adjusted Mueller Hinton Broth (Teknova #M5860); MRSA (Methicillin resistant Staphylococcus aureus, ATCC33591). Test compounds: all compounds were dissolved in PBS at 10 mg/mL and stored at −20° C.
The method used for determination of MIC's follows the procedure described by the Clinical Laboratory Standards Institute (CLSI). A standardized inoculum of MRSA was prepared per CLSI methods yielding a final cell concentration of 5×10 (5) CFU/mL. 10× compound dilutions were prepared by performing 2 fold serial dilutions in Cation Adjusted Mueller Hinton Broth. The starting and ending concentrations were 640 μg/mL and 1.25 μg/mL, respectively for final assay concentrations of 64 µg/mL and 0.125 μg/mL. 10 μL of the 10× compound dilutions were added to 90 μL of the MRSA cell suspension in microplate wells. Plates were incubated in a 35° C. incubator for approximately 20 hours.

Clostridium difficile = test: Activity against Clostridium difficile; type: cell-based; conditions: relative to corresponding capreomycin IB phenyl urea analog

Row | Compound | activity against mycobacteria (mycobacteria) | activity against other genera of bacteria [1] | efficacy against most Gram-positive bacteria (Staphylococcus) or Gram-negative bacteria (Escherichia coli) [1] | activity against MRSA [2] | fold more active against Clostridium difficile than the corresponding capreomycin IB phenyl urea analogs (Clostridium difficile)
1 | Capreomycin | potent activity | little activity | not efficacious |  | 
2 | C[C@@H]1NC(=O)[C@@H](N)CNC(=O)[C@H](C2CCNC(=N)N2)NC(=O)/C(=C/NC(=O)Nc2cccc(-c3ccccc3)c2)NC(=O)[C@H](CN)NC1=O (some centres unmarked) [Compound 73] |  |  |  | active | 4 fold
